ChEMBL document CHEMBL3102770, “Development and pharmacological characterization of conformationally constrained urotensin II-related peptide agonists” (J Med Chem, 2013)
The source made the active and inactive calls. The rule behind the calls is not given here. Positions of bridges follow the written chain, without caps; N, C: chain ends. Residues, ends and D or L forms follow the SMILES beside them.

What was measured:
Urotensin-2 receptor [1] = molecular target: T1, Urotensin-2 receptor (Rattus norvegicus, UniProt P49684); assay: Agonist activity at urotensin-2 receptor in Sprague-Dawley rat aortic rings assessed as KCl-induced vasoconstriction
T1 sequence (P49684 whole entry): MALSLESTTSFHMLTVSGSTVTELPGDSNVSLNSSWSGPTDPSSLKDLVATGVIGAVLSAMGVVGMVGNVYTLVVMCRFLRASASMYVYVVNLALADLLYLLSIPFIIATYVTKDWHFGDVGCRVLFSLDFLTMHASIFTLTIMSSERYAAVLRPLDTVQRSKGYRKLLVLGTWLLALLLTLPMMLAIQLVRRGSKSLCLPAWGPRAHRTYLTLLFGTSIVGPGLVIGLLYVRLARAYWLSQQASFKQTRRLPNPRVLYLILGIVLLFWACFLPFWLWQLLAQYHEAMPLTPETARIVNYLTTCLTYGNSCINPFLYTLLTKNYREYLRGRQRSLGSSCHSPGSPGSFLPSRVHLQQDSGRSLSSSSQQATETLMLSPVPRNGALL

Urotensin-2 receptor [2] = molecular target: T2, Urotensin-2 receptor (Homo sapiens, UniProt Q9UKP6); assay: Displacement of [125I]-Urotensin-2 from human GPR14 expressed in CHO cells after 90 mins by gamma counting analysis; assay type: cell-based
T2 sequence (Q9UKP6 whole entry): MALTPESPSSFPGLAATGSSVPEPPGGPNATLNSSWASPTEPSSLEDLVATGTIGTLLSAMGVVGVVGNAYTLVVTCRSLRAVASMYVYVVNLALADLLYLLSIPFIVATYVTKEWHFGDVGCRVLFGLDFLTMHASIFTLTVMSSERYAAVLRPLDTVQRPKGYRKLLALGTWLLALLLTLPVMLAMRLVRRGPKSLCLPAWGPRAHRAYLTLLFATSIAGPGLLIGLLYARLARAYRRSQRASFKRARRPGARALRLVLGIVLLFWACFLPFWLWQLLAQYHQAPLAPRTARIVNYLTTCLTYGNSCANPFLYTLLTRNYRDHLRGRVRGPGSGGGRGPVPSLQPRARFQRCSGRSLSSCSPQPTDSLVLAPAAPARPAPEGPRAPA

[3] = molecular target: T3, Urotensin-2 receptor (Rattus norvegicus) (UniProt P49684); assay: Agonist activity at urotensin-2 receptor in Sprague-Dawley rat aortic rings assessed as KCl-induced vasoconstriction at 3 X 10^-11 to 3 X 10^-6 M relative to control
T3 sequence (whole entry): T1 sequence (P49684 whole entry)

[4] = molecular target: T3, Urotensin-2 receptor (Rattus norvegicus); assay: Agonist activity at urotensin-2 receptor in Sprague-Dawley rat aortic rings assessed as KCl-induced vasoconstriction at 10^-5.5 M relative to control

CC(C)[C@H](NC(=O)[C@@H]1CSSC[C@H](NC(=O)[C@H](C)N)C(=O)N[C@@H](Cc2ccccc2)C(=O)N[C@@H]2Cc3c([nH]c4ccccc34)CN(C2=O)[C@@H](CCCCN)C(=O)N[C@@H](Cc2ccc(O)cc2)C(=O)N1)C(=O)O
EC50 (Urotensin-2 receptor [1]; read-out: EC50): 0.159 µM | EC50 (Urotensin-2 receptor [1]; read-out: pEC50 (converted)): 0.162 µM | IC50 (Urotensin-2 receptor [2]; read-out: IC50): 0.06 µM | Emax [3]: 148%

CC(C)[C@H](NC(=O)[C@@H]1CSSC[C@H](NC(=O)[C@H](C)N)C(=O)N[C@@H](Cc2ccccc2)C(=O)N2Cc3[nH]c4ccccc4c3C[C@H]2C(=O)N[C@@H](CCCCN)C(=O)N[C@@H](Cc2ccc(O)cc2)C(=O)N1)C(=O)O
Emax [3]: 139%

CC(C)[C@H](NC(=O)[C@@H]1CSSC[C@H](NC(=O)[C@H](C)N)C(=O)N[C@@H](Cc2ccccc2)C(=O)N[C@@H](Cc2c[nH]c3ccccc23)C(=O)N[C@@H](CCCCN)C(=O)N[C@@H](Cc2ccc(O)cc2)C(=O)N1)C(=O)O
EC50 (Urotensin-2 receptor [1]; read-out: EC50): 0.007 µM | EC50 (Urotensin-2 receptor [1]; read-out: pEC50 (converted)): 0.00813 µM | Emax [3]: 100%

CC(C)[C@H](NC(=O)[C@@H]1CSSC[C@H](NC(=O)[C@H](C)N)C(=O)N[C@@H](Cc2ccccc2)C(=O)N2Cc3ccccc3C[C@@H]2C(=O)N[C@@H](CCCCN)C(=O)N[C@@H](Cc2ccc(O)cc2)C(=O)N1)C(=O)O
EC50 (Urotensin-2 receptor [1]; read-out: EC50): 0.259 µM | EC50 (Urotensin-2 receptor [1]; read-out: pEC50 (converted)): 0.832 µM | Emax [3]: 128%

CC(C)[C@H](NC(=O)[C@@H]1CSSC[C@H](NC(=O)[C@H](C)N)C(=O)N[C@@H](Cc2ccccc2)C(=O)N[C@@H](CC2CCCCC2)C(=O)N[C@@H](CCCCN)C(=O)N[C@@H](Cc2ccc(O)cc2)C(=O)N1)C(=O)O
EC50 (Urotensin-2 receptor [1]; read-out: pEC50 (converted)): > 1 µM | Emax [4]: 77%

CC(C)[C@H](NC(=O)[C@@H]1CSSC[C@H](NC(=O)[C@H](CC(=O)O)NC(=O)[C@@H]2CCCN2C(=O)[C@@H](NC(=O)[C@@H](N)CCC(=O)O)[C@@H](C)O)C(=O)N[C@@H](Cc2ccccc2)C(=O)N2CCC[C@H]2C(=O)N[C@@H](CCCCN)C(=O)N[C@@H](Cc2ccc(O)cc2)C(=O)N1)C(=O)O (H-ETPDCFPKYCV-OH; disulfide 5-10)
Emax [4]: 69%

CC(C)[C@H](NC(=O)[C@@H]1CSSC[C@@H](NC(=O)[C@H](CC(=O)O)NC(=O)[C@H]2CCCN2C(=O)[C@@H](NC(=O)[C@@H](N)CCC(=O)O)[C@@H](C)O)C(=O)N[C@H](Cc2ccccc2)C(=O)N[C@@H](Cc2c[nH]c3ccccc23)C(=O)N[C@H](CCCCN)C(=O)N[C@@H](Cc2ccc(O)cc2)C(=O)N1)C(=O)O
Emax [3]: 117%

CC(C)[C@H](NC(=O)[C@@H]1CSSC[C@H](NC(=O)[C@H](C)N)C(=O)N[C@@H](Cc2ccccc2)C(=O)N2Cc3[nH]c4ccccc4c3C[C@H]2C(=O)N[C@@H](CCCN)C(=O)N[C@@H](Cc2ccc(O)cc2)C(=O)N1)C(=O)O
EC50 (Urotensin-2 receptor [1]): Not Active | IC50 (Urotensin-2 receptor [2]; read-out: pIC50 (converted)): > 10 µM | Emax [3]: inactive

CC(C)[C@H](NC(=O)[C@@H]1CSSC[C@H](NC(=O)[C@H](C)N)C(=O)N[C@@H](Cc2ccccc2)C(=O)N[C@@H](C(C)(C)C)C(=O)N[C@@H](CCCCN)C(=O)N[C@@H](Cc2ccc(O)cc2)C(=O)N1)C(=O)O
EC50 (Urotensin-2 receptor [1]): Not Active | IC50 (Urotensin-2 receptor [2]; read-out: pIC50 (converted)): > 10 µM | Emax [3]: inactive

CC(C)[C@H](NC(=O)[C@@H]1CSSC[C@H](NC(=O)[C@H](C)N)C(=O)N[C@@H](Cc2ccccc2)C(=O)N[C@H](c2ccccc2)C(=O)N[C@@H](CCCCN)C(=O)N[C@@H](Cc2ccc(O)cc2)C(=O)N1)C(=O)O
EC50 (Urotensin-2 receptor [1]; read-out: EC50): 0.117 µM | IC50 (Urotensin-2 receptor [2]; read-out: pIC50 (converted)): 0.0275 µM | Emax [3]: 116%

CC(C)[C@H](NC(=O)[C@@H]1CSSC[C@H](NC(=O)[C@H](C)N)C(=O)N[C@@H](Cc2ccccc2)C(=O)N[C@@H](Cc2cccc3ccccc23)C(=O)N[C@@H](CCCCN)C(=O)N[C@@H](Cc2ccc(O)cc2)C(=O)N1)C(=O)O
EC50 (Urotensin-2 receptor [1]; read-out: EC50): 0.054 µM | IC50 (Urotensin-2 receptor [2]; read-out: IC50): 0.017 µM | Emax [3]: 86%

CC(C)[C@H](NC(=O)[C@@H]1CSSC[C@H](NC(=O)[C@H](C)N)C(=O)N[C@@H](Cc2ccccc2)C(=O)N[C@@H](C(c2ccccc2)c2ccccc2)C(=O)N[C@@H](CCCCN)C(=O)N[C@@H](Cc2ccc(O)cc2)C(=O)N1)C(=O)O
EC50 (Urotensin-2 receptor [1]; read-out: pEC50 (converted)): > 1 µM | IC50 (Urotensin-2 receptor [2]; read-out: pIC50 (converted)): 0.282 µM | Emax [4]: 23%

CC(C)[C@H](NC(=O)[C@@H]1CSSC[C@H](NC(=O)[C@H](C)N)C(=O)N[C@@H](Cc2ccccc2)C(=O)N[C@@H](c2ccccc2)C(=O)N[C@@H](CCCCN)C(=O)N[C@@H](Cc2ccc(O)cc2)C(=O)N1)C(=O)O
EC50 (Urotensin-2 receptor [1]; read-out: EC50): 0.251 µM | Emax [3]: 102%

CC(C)[C@H](NC(=O)[C@@H]1CSSC[C@H](NC(=O)[C@H](C)N)C(=O)N[C@@H](Cc2ccccc2)C(=O)N[C@H](C(C)(C)C)C(=O)N[C@@H](CCCCN)C(=O)N[C@@H](Cc2ccc(O)cc2)C(=O)N1)C(=O)O
EC50 (Urotensin-2 receptor [1]; read-out: pEC50 (converted)): > 1 µM | IC50 (Urotensin-2 receptor [2]; read-out: pIC50 (converted)): > 1 µM | Emax [4]: 64%

CC(C)[C@H](NC(=O)[C@@H]1CSSC[C@H](NC(=O)[C@H](C)N)C(=O)N[C@@H](Cc2ccccc2)C(=O)N[C@@H](Cc2ccc(I)cc2)C(=O)N[C@@H](CCCCN)C(=O)N[C@@H](Cc2ccc(O)cc2)C(=O)N1)C(=O)O
IC50 (Urotensin-2 receptor [2]; read-out: IC50): 0.058 µM | Emax [4]: 92%

CC(C)[C@H](NC(=O)[C@@H]1CSSC[C@H](NC(=O)[C@H](C)N)C(=O)N[C@@H](Cc2ccccc2)C(=O)N2CCc3ccccc3[C@H]2C(=O)N[C@@H](CCCCN)C(=O)N[C@@H](Cc2ccc(O)cc2)C(=O)N1)C(=O)O
EC50 (Urotensin-2 receptor [1]; read-out: EC50): 0.022 µM | IC50 (Urotensin-2 receptor [2]; read-out: IC50): 0.01 µM | Emax [3]: 126%

CC(C)[C@H](NC(=O)[C@@H]1CSSC(C)(C)[C@H](NC(=O)[C@H](C)N)C(=O)N[C@@H](Cc2ccccc2)C(=O)N2CCc3ccccc3[C@H]2C(=O)N[C@@H](CCCCN)C(=O)N[C@@H](Cc2ccc(O)cc2)C(=O)N1)C(=O)O
EC50 (Urotensin-2 receptor [1]): Not Active

CC(C)[C@H](NC(=O)[C@@H]1CSSC[C@H](NC(=O)[C@H](C)N)C(=O)N[C@@H](Cc2ccccc2)C(=O)N2Cc3ccccc3C[C@H]2C(=O)N[C@@H](CCCCN)C(=O)N[C@@H](Cc2ccc(O)cc2)C(=O)N1)C(=O)O
EC50 (Urotensin-2 receptor [1]; read-out: pEC50 (converted)): > 1 µM | IC50 (Urotensin-2 receptor [2]; read-out: pIC50 (converted)): > 10 µM | Emax [4]: 43%

CC(C)[C@H](NC(=O)[C@@H]1CSSC[C@H](NC(=O)[C@H](CC(=O)O)NC(=O)[C@@H]2CCCN2C(=O)[C@@H](NC(=O)[C@@H](N)CCC(=O)O)[C@@H](C)O)C(=O)N[C@@H](Cc2ccccc2)C(=O)N[C@@H](Cc2c[nH]c3ccccc23)C(=O)N[C@@H](CCCCN)C(=O)N[C@@H](Cc2ccc(O)cc2)C(=O)N1)C(=O)O [HUMAN UROTENSIN II]
EC50 (Urotensin-2 receptor [1]; read-out: EC50): 0.001 µM | EC50 (Urotensin-2 receptor [1]; read-out: pEC50 (converted)): 0.000832 µM

CC(C)[C@H](NC(=O)[C@@H]1CSSC[C@H](NC(=O)[C@H](C)N)C(=O)N[C@@H](Cc2ccccc2)C(=O)N2CCc3ccccc3[C@@H]2C(=O)N[C@@H](CCCCN)C(=O)N[C@@H](Cc2ccc(O)cc2)C(=O)N1)C(=O)O
EC50 (Urotensin-2 receptor [1]; read-out: EC50): 0.021 µM | IC50 (Urotensin-2 receptor [2]; read-out: IC50): 0.021 µM | Emax [3]: 113%

CC(C)[C@H](NC(=O)[C@@H]1CSSC[C@H](NC(=O)[C@H](C)N)C(=O)N[C@@H](Cc2ccccc2)C(=O)N[C@H]2Cc3c([nH]c4ccccc34)CN(C2=O)[C@@H](CCCCN)C(=O)N[C@@H](Cc2ccc(O)cc2)C(=O)N1)C(=O)O
EC50 (Urotensin-2 receptor [1]; read-out: EC50): 0.181 µM | EC50 (Urotensin-2 receptor [1]; read-out: pEC50 (converted)): 0.38 µM | IC50 (Urotensin-2 receptor [2]; read-out: IC50): 0.808 µM | Emax [3]: 51%

CC(C)[C@H](NC(=O)[C@@H]1CSSC[C@H](NC(=O)[C@H](C)N)C(=O)N[C@@H](Cc2ccccc2)C(=O)N[C@H](Cc2cccc3ccccc23)C(=O)N[C@@H](CCCCN)C(=O)N[C@@H](Cc2ccc(O)cc2)C(=O)N1)C(=O)O
EC50 (Urotensin-2 receptor [1]; read-out: EC50): 0.825 µM | Emax [4]: 34%

CC(C)[C@H](NC(=O)[C@@H]1CSSC(C)(C)[C@@H](NC(=O)[C@H](C)N)C(=O)N[C@@H](Cc2ccccc2)C(=O)N2CCc3ccccc3[C@H]2C(=O)N[C@@H](CCCCN)C(=O)N[C@@H](Cc2ccc(O)cc2)C(=O)N1)C(=O)O
Emax [3]: inactive

CC(C)[C@H](NC(=O)[C@@H]1CSSC[C@H](NC(=O)[C@H](C)N)C(=O)N[C@@H](Cc2ccccc2)C(=O)N2CCc3ccccc3[C@H]2C(=O)N[C@@H](CCCN)C(=O)N[C@@H](Cc2ccc(O)cc2)C(=O)N1)C(=O)O
EC50 (Urotensin-2 receptor [1]): Not Active | IC50 (Urotensin-2 receptor [2]; cho): Not Active | Emax [3]: inactive

CC(C)[C@H](NC(=O)[C@@H]1CSSC[C@H](NC(=O)[C@H](C)N)C(=O)N[C@@H](Cc2ccccc2)C(=O)N2Cc3[nH]c4ccccc4c3C[C@@H]2C(=O)N[C@@H](CCCCN)C(=O)N[C@@H](Cc2ccc(O)cc2)C(=O)N1)C(=O)O
Emax [4]: 42%
